Drawing on ChEMBL document CHEMBL1130709, “Synthesis and phototoxic property of tetra- and octa-glycoconjugated tetraphenylchlorins” (Bioorg Med Chem Lett, 1998), this text covers k obs for 6 compounds.

The structures appear in SMILES notation.

This assay can be described thus: Photosensitizing ability was evaluated by the degradation of DPBF by singlet oxygen in DMSO solution at 27 degree Centigrade.
With `CC(=O)OC[C@@H]1O[C@H](Oc2ccc(-c3c4nc(c(-c5ccc(O[C@@H]6O[C@H](COC(C)=O)[C@H](OC(C)=O)[C@H](OC(C)=O)[C@H]6OC(C)=O)cc5)c5nc(c(-c6ccc(O[C@@H]7O[C@H](COC(C)=O)[C@H](OC(C)=O)[C@H](OC(C)=O)[C@H]7OC(C)=O)cc6)c6ccc([nH]6)c(-c6ccc(O[C@H]7O[C@@H](COC(C)=O)[C@@H](OC(C)=O)[C@@H](OC(C)=O)[C@@H]7OC(C)=O)cc6)c6ccc3[nH]6)CC5)C=C4)cc2)[C@@H](OC(C)=O)[C@H](OC(C)=O)[C@@H]1OC(C)=O`, the k obs is 0.0068 s⁻¹. As for `OC[C@@H]1O[C@H](Oc2cc(O[C@H]3O[C@@H](CO)[C@H](O)[C@@H](O)[C@@H]3O)cc(-c3c4nc(c(-c5cc(O[C@@H]6O[C@H](CO)[C@@H](O)[C@H](O)[C@H]6O)cc(O[C@@H]6O[C@H](CO)[C@@H](O)[C@H](O)[C@H]6O)c5)c5nc(c(-c6cc(O[C@@H]7O[C@H](CO)[C@@H](O)[C@H](O)[C@H]7O)cc(O[C@@H]7O[C@H](CO)[C@@H](O)[C@H](O)[C@H]7O)c6)c6ccc([nH]6)c(-c6cc(O[C@@H]7O[C@H](CO)[C@@H](O)[C@H](O)[C@H]7O)cc(O[C@@H]7O[C@H](CO)[C@@H](O)[C@H](O)[C@H]7O)c6)c6ccc3[nH]6)CC5)C=C4)c2)[C@@H](O)[C@H](O)[C@H]1O`, the k obs is 0.011 s⁻¹. Take `CC(=O)OC[C@@H]1O[C@H](Oc2ccc(-c3c4nc(c(-c5ccc(O[C@@H]6O[C@H](COC(C)=O)[C@@H](OC(C)=O)[C@H](OC(C)=O)[C@H]6OC(C)=O)cc5)c5nc(c(-c6ccc(O[C@@H]7O[C@H](COC(C)=O)[C@@H](OC(C)=O)[C@H](OC(C)=O)[C@H]7OC(C)=O)cc6)c6ccc([nH]6)c(-c6ccc(O[C@H]7O[C@@H](COC(C)=O)[C@H](OC(C)=O)[C@@H](OC(C)=O)[C@@H]7OC(C)=O)cc6)c6ccc3[nH]6)CC5)C=C4)cc2)[C@@H](OC(C)=O)[C@H](OC(C)=O)[C@H]1OC(C)=O`: the k obs turned out to be 0.012 s⁻¹. Under `OC[C@@H]1O[C@H](Oc2ccc(-c3c4nc(c(-c5ccc(O[C@@H]6O[C@H](CO)[C@H](O)[C@H](O)[C@H]6O)cc5)c5nc(c(-c6ccc(O[C@@H]7O[C@H](CO)[C@H](O)[C@H](O)[C@H]7O)cc6)c6ccc([nH]6)c(-c6ccc(O[C@H]7O[C@@H](CO)[C@@H](O)[C@@H](O)[C@@H]7O)cc6)c6ccc3[nH]6)CC5)C=C4)cc2)[C@@H](O)[C@H](O)[C@@H]1O` stands 0.0062 s⁻¹.

Consider `OC[C@@H]1O[C@H](Oc2ccc(-c3c4nc(c(-c5ccc(O[C@@H]6O[C@H](CO)[C@@H](O)[C@H](O)[C@H]6O)cc5)c5nc(c(-c6ccc(O[C@@H]7O[C@H](CO)[C@@H](O)[C@H](O)[C@H]7O)cc6)c6ccc([nH]6)c(-c6ccc(O[C@H]7O[C@@H](CO)[C@H](O)[C@@H](O)[C@@H]7O)cc6)c6ccc3[nH]6)CC5)C=C4)cc2)[C@@H](O)[C@H](O)[C@H]1O`, for which the k obs is 0.0094 s⁻¹.

On to `CC(=O)OC[C@@H]1O[C@H](Oc2cc(O[C@@H]3O[C@H](COC(C)=O)[C@@H](OC(C)=O)[C@H](OC(C)=O)[C@H]3OC(C)=O)cc(-c3c4nc(c(-c5cc(O[C@H]6O[C@@H](COC(C)=O)[C@H](OC(C)=O)[C@@H](OC(C)=O)[C@@H]6OC(C)=O)cc(O[C@H]6O[C@@H](COC(C)=O)[C@H](OC(C)=O)[C@@H](OC(C)=O)[C@@H]6OC(C)=O)c5)c5ccc([nH]5)c(-c5cc(O[C@H]6O[C@@H](COC(C)=O)[C@H](OC(C)=O)[C@@H](OC(C)=O)[C@@H]6OC(C)=O)cc(O[C@@H]6O[C@H](COC(C)=O)[C@@H](OC(C)=O)[C@H](OC(C)=O)[C@H]6OC(C)=O)c5)c5ccc([nH]5)c(-c5cc(O[C@@H]6O[C@H](COC(C)=O)[C@@H](OC(C)=O)[C@H](OC(C)=O)[C@H]6OC(C)=O)cc(O[C@@H]6O[C@H](COC(C)=O)[C@@H](OC(C)=O)[C@H](OC(C)=O)[C@H]6OC(C)=O)c5)c5nc3CC5)C=C4)c2)[C@@H](OC(C)=O)[C@H](OC(C)=O)[C@H]1OC(C)=O`, for which the k obs turned out to be 0.011 s⁻¹.
